Assays:
[1] = tested on: Chrna2 (cholinergic receptor, neuronal nicotinic, alpha polypeptide 2); assay: Chrna2 gene expression in the duodenum of treated ob/ob mice; assay type: in vivo; details: p<0.01
[2] = tested on: ob/ob mice; assay: Food intake in ob/ob mice after seven days of treatment; assay type: in vivo; details: 5 mg/kg/day

SMILES: Cc1oc(-c2ccc(C(F)(F)F)cc2)nc1COc1ccc(S(=O)(=O)N2c3ccccc3C[C@@H]2C(=O)O)cc1 [(R)-1-{4-[5-methyl-2-(4-trifluoromethyl-phenyl)-oxazol-4-ylmethoxy]-benzenesulfonyl}-2,3-dihydro-1H-indole-2-carboxylic acid]
- Chrna2 expression in the duodenum increased by ([1]; after 1 day of treatment): 15 fold
- Chrna2 expression in the duodenum increased by ([1]; after 2 days of treatment): 11 fold
- Chrna2 expression in the duodenum increased by ([1]; after 7 days of treatment): ~140 fold
- daily food intake down by ([2]; by day 7, p<0.01): 50%
- food intake compared to vehicle ([2]; starting on day 3): significantly lowered food intake

— patent US20070299047A1, “Combination of Organic Compounds” (priority 2004, published 2007)
